Columns and labels:
[1] = tested on: EPISKIN model
Description: (§1) “Sensitizing power” means the ability of a given compound to induce a sensitization reaction according to the concentration of said compound. Sensitizing power is dependent on the quantity of substance necessary to induce sensitization. Thus, the lower the sensitizing quantity necessary to induce a sensitizing response, the stronger the sensitizer is, and vice versa, the higher the sensitizing quantity necessary to induce a sensitizing response, the weaker the sensitizer is.
(§2) Thus, steps 1) and 2) will be done for each of the dilutions.

[2] = tested on: ARE gene family (AKR1B10, AKR1C1, AKR1C2, CYP1B1, FTH1P, FTL, G6PD, GCLM, NQO2, SLC7A11, TXNRD1, UGT1A1, UGT1A9, YWHAZ, CD36, CYP1A1, GCLC, HMOX1, NQO1, PSME2 …)
[3] = tested on: genes specific for sensitization (BRAK, CTSS, DAPK2, FABP4, HSP27, IL18, HSP90, IL1R2, TPSAB1, CXCR1, DEFB1, DHFR, EHF, IVL, KRT4, MELANA, NGAL, PDZK1IP1, PI3 …); experiment: Expression of the other (non-ARE) sensitization-specific genes in EPISKIN reconstructed skin (quantitative RT-PCR); format: cell-based, human
[4] = tested on: EPISKIN model; experiment: Sensitizing power: sensitizing potential retested at successive dilutions in the EPISKIN model
Description: as §1, §2

Q: With `CC(O)C(=O)O` (stereo not drawn) [Ac Lactique] as the compound, how does the “sensitizing potential (conclusion)” value [1] read?
A: Its value is “Non-sensitizing”.

Q: And the “AHR NUMBER OF GENES grade” value [2]?
A: Its value is 0 (key: If the expression is greater than 1.3 compared to the control, a grade of 11s given; if this expression is lower, the grade is 0).

Q: And the AHR expression [2]?
A: Its AHR expression is 0.8.

Q: What about the “AKR1B10 NUMBER OF GENES grade” value [2] of the same compound?
A: The value was 0 (key: If the expression is greater than 1.3 compared to the control, a grade of 11s given; if this expression is lower, the grade is 0).

Q: And the “AKR1C1 NUMBER OF GENES grade” value [2]?
A: Its value is 0 (key: If the expression is greater than 1.3 compared to the control, a grade of 11s given; if this expression is lower, the grade is 0).

Q: What about the “AKR1C2 NUMBER OF GENES grade” value [2] of the same compound?
A: The value was 0 (key: If the expression is greater than 1.3 compared to the control, a grade of 11s given; if this expression is lower, the grade is 0).

Q: And the “ARE >1.3 (number of genes)” value [2]?
A: Its value is 0.

Q: And the “CYP1B1 NUMBER OF GENES grade” value [2]?
A: Its value is 0 (key: If the expression is greater than 1.3 compared to the control, a grade of 11s given; if this expression is lower, the grade is 0).

Q: What about the “FTH1P NUMBER OF GENES grade” value [2] of the same compound?
A: The value was 0 (key: If the expression is greater than 1.3 compared to the control, a grade of 11s given; if this expression is lower, the grade is 0).

Q: And the “FTL NUMBER OF GENES grade” value [2]?
A: Its value is 0 (key: If the expression is greater than 1.3 compared to the control, a grade of 11s given; if this expression is lower, the grade is 0).

Q: And the “GCLC NUMBER OF GENES grade” value [2]?
A: The value was 0 (key: If the expression is greater than 1.3 compared to the control, a grade of 11s given; if this expression is lower, the grade is 0).

Q: And the “GCLM NUMBER OF GENES grade” value [2]?
A: Its value is 0 (key: If the expression is greater than 1.3 compared to the control, a grade of 11s given; if this expression is lower, the grade is 0).

Q: And the GCLM expression [2]?
A: Its GCLM expression is 1.1.

Q: What about the “HMOX1 NUMBER OF GENES grade” value [2] of the same compound?
A: The value was 0 (key: If the expression is greater than 1.3 compared to the control, a grade of 11s given; if this expression is lower, the grade is 0).

Q: And the “NQO1 NUMBER OF GENES grade” value [2]?
A: The value was 0 (key: If the expression is greater than 1.3 compared to the control, a grade of 11s given; if this expression is lower, the grade is 0).

Q: And the “NQO2 NUMBER OF GENES grade” value [2]?
A: The value was 0 (key: If the expression is greater than 1.3 compared to the control, a grade of 11s given; if this expression is lower, the grade is 0).

Q: What about the NQO2 expression [2] of the same compound?
A: Its NQO2 expression is 1.2.

Q: What about the “SLC7A11 NUMBER OF GENES grade” value [2] of the same compound?
A: Its value is 0 (key: If the expression is greater than 1.3 compared to the control, a grade of 11s given; if this expression is lower, the grade is 0).

Q: And the SLC7A11 expression [2]?
A: The SLC7A11 expression was 1.0.

Q: What about the “TOTAL ARE (number of genes)” value [2] of the same compound?
A: Its value is 0.

Q: What about the “TXNRD1 NUMBER OF GENES grade” value [2] of the same compound?
A: The value was 0 (key: If the expression is greater than 1.3 compared to the control, a grade of 11s given; if this expression is lower, the grade is 0).

Q: What about the “UGT1A1 NUMBER OF GENES grade” value [2] of the same compound?
A: Its value is 0 (key: If the expression is greater than 1.3 compared to the control, a grade of 11s given; if this expression is lower, the grade is 0).

Q: And the UGT1A1 expression [2]?
A: Its UGT1A1 expression is 1.3.

Q: What about the “UGT1A9 NUMBER OF GENES grade” value [2] of the same compound?
A: The value was 0 (key: If the expression is greater than 1.3 compared to the control, a grade of 11s given; if this expression is lower, the grade is 0).

Q: What about the UGT1A9 expression [2] of the same compound?
A: The UGT1A9 expression was 0.8.

Q: What about the “SENS >1.3 (number of genes)” value [3] of the same compound?
A: Its value is 1.

Q: What about the “NUMBER OF GENES overexpressed, sum column 8” value [4] of the same compound?
A: Its value is 0.
